The source of these data is patent US20140213513A1 (Sanofi, priority 2012, published 2014).

Assay type in all cases: cell-based
Settings in all cases: Table 7; cAMP formation
Background: Changes in cAMP serve as a functional read-out for many G protein-coupled receptors.

Test [1] deals with T1, human GIP receptor (hGIP R) (Homo sapiens, UniProt P48546).
T1 construct: expressed in transfected cells
T1 sequence (P48546 22-466): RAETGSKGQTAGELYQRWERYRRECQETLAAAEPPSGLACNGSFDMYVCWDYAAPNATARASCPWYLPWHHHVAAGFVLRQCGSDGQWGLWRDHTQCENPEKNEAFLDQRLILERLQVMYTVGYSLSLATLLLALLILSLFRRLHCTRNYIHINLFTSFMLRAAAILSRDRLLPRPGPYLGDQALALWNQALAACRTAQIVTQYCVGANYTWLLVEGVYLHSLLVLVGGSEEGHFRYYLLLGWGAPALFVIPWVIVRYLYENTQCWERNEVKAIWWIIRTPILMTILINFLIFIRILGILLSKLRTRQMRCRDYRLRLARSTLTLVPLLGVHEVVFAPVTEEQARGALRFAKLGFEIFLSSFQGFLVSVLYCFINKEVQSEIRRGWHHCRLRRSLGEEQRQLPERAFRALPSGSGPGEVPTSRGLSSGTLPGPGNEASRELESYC
Nature of the test: cAMP response of HEK-293 cells stably expressing human GIP receptor (HTRF). As to the method: (§1) cAMP content of cells was determined using a kit from Cisbio Corp. (cat. no. 62AM4PEC) based on HTRF (Homogenous Time Resolved Fluorescence). For preparation, cells were split into T175 culture flasks and grown overnight to near confluency in medium (DMEM/10% FBS). Medium was then removed and cells washed with PBS lacking calcium and magnesium, followed by proteinase treatment with accutase (Sigma-Aldrich cat. no. A6964). Detached cells were washed and resuspended in assay buffer (1×HBSS; 20 mM HEPES, 0.1% BSA, 2 mM IBMX) and cellular density determined. They were then diluted to 400000 cells/ml and 25 μl-aliquots dispensed into the wells of 96-well plates. For measurement, 25 μl of test compound in assay buffer was added to the wells, followed by incubation for 30 minutes at room temperature.
Background: In TR-FRET formats the signal depends on donor and acceptor labels being close together.

The target of test [2] is T2, human GLP-1 receptor (hGLP-1 R) (Homo sapiens, UniProt P43220).
T2 construct: expressed in transfected cells
T2 sequence (P43220 24-463): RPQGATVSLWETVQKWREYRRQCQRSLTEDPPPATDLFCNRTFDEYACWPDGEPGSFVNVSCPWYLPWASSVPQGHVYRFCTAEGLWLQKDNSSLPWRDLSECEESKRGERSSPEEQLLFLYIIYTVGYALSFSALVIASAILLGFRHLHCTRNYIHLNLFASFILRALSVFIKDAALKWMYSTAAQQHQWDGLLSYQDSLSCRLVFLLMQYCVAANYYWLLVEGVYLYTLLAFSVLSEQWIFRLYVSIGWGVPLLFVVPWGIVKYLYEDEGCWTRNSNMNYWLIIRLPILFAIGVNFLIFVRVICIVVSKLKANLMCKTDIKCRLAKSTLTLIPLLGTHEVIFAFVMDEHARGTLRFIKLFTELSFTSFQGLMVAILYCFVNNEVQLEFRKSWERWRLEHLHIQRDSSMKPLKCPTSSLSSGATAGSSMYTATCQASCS
Nature of the test: cAMP response of HEK-293 cells stably expressing human GLP-1 receptor (HTRF). As to the method: as §1

Test [3] addresses T3, human glucagon receptor (hGLUC R) (Homo sapiens, UniProt P47871).
T3 construct: expressed in transfected cells
Nature of the test: cAMP response of HEK-293 cells stably expressing human glucagon receptor (HTRF). How it is done:
as §1

Molecules are shown by their SMILES. pEC50: −log10 of the molar value. *1 amine or outer side, *2 acyl side, *3 side chain or, on linkers, in order; H or OH if unused. Where a SMILES comes first, the peptide text is derived from it. Side-chain parts run from the residue outwards. [ ]: non-standard residue; d: D form. The star is where a group is joined. γGlu = O=C(O)[C@H](CCC(=O)[*:2])N[*:1]; Stearoyl = CCCCCCCCCCCCCCCCCC(=O)*; Palmitoyl = CCCCCCCCCCCCCCCC(=O)*; Aib = CC(C)(N)C(=O)O

T3 sequence (P47871 26-477): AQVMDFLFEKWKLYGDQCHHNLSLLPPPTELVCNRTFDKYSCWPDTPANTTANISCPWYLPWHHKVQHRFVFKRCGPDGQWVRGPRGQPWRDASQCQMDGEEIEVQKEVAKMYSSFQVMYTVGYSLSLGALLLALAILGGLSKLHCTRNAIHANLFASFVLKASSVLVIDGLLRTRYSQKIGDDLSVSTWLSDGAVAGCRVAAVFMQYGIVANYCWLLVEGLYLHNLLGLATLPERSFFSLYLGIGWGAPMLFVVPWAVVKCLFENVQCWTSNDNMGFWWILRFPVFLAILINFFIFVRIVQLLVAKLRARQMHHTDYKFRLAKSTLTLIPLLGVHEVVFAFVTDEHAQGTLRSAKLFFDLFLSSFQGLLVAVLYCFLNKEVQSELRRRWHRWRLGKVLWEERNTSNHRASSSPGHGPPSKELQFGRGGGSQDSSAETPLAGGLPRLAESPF

One may read the pEC50 as the negative decadic logarithm of the EC50, by convention in mol/L. A low value points to a large EC50. Turning to `CCCCCCCCCCCCCCCC(=O)N[C@@H](CCC(=O)NCCCC[C@H](NC(=O)[C@H](CCC(N)=O)NC(=O)[C@@H](NC(=O)[C@H](CO)NC(=O)[C@H](CC(C)C)NC(=O)[C@H](CC(=O)O)NC(=O)[C@H](CO)NC(=O)[C@@H](NC(=O)[C@H](Cc1ccccc1)NC(=O)[C@@H](NC(=O)CNC(=O)[C@H](CCC(N)=O)NC(=O)C(C)(C)NC(=O)[C@@H](N)Cc1ccc(O)cc1)[C@@H](C)O)[C@@H](C)O)[C@@H](C)CC)C(=O)N[C@@H](CCC(=O)O)C(=O)N[C@@H](CCCCN)C(=O)N[C@@H](CCCNC(=N)N)C(=O)N[C@@H](C)C(=O)N[C@@H](C)C(=O)N[C@@H](Cc1c[nH]cn1)C(=O)N[C@@H](CCC(=O)O)C(=O)N[C@@H](Cc1ccccc1)C(=O)N[C@H](C(=O)N[C@@H](CCC(=O)O)C(=O)N[C@@H](Cc1c[nH]c2ccccc12)C(=O)N[C@@H](CC(C)C)C(=O)N[C@@H](CCCCN)C(=O)N[C@@H](CC(N)=O)C(=O)N[C@H](C(=O)NCC(=O)N1CCC[C@H]1C(=O)N[C@@H](CO)C(=O)N[C@@H](CO)C(=O)NCC(=O)N[C@@H](C)C(=O)N1CCC[C@H]1C(=O)N1CCC[C@H]1C(=O)N1CCC[C@H]1C(=O)N[C@@H](CO)C(N)=O)[C@@H](C)O)[C@@H](C)CC)C(=O)O` [SEQ ID NO: 36, Y-Aib-Q-G-T-F-T-S-D-L-S-I-Q-K(yE-x53)-EKRAAHEFIEWLKNTGPSSGAPPPS-NH2] (H-Y[Aib]QGTFTSDLSIQK([γGlu-Palmitoyl])EKRAAHEFIEWLKNTGPSSGAPPPS-NH2), the pEC50 in test [1] was 10.52; in test [2] it was 11.28; in test [3], 10.40.

For the compound `CCCCCCCCCCCCCCCC(=O)N[C@@H](CCC(=O)NCCCC[C@H](NC(=O)[C@H](CCC(N)=O)NC(=O)[C@@H](NC(=O)[C@H](CO)NC(=O)[C@H](CC(C)C)NC(=O)[C@H](CC(=O)O)NC(=O)[C@H](CO)NC(=O)[C@@H](NC(=O)[C@H](Cc1ccccc1)NC(=O)[C@@H](NC(=O)CNC(=O)[C@H](CCC(=O)O)NC(=O)C(C)(C)NC(=O)[C@@H](N)Cc1ccc(O)cc1)[C@@H](C)O)[C@@H](C)O)[C@@H](C)CC)C(=O)N[C@@H](CCC(=O)O)C(=O)N[C@@H](CCC(=O)O)C(=O)N[C@@H](CCC(N)=O)C(=O)N[C@@H](C)C(=O)N[C@@H](C)C(=O)N[C@@H](Cc1c[nH]cn1)C(=O)N[C@@H](CCC(=O)O)C(=O)N[C@@H](Cc1ccccc1)C(=O)N[C@H](C(=O)N[C@@H](CCC(=O)O)C(=O)N[C@@H](Cc1c[nH]c2ccccc12)C(=O)N[C@@H](CC(C)C)C(=O)N[C@@H](CCCCN)C(=O)N[C@@H](CCCNC(=N)N)C(=O)NC(C)(C)C(=O)NCC(=O)N1CCC[C@H]1C(=O)N[C@@H](CO)C(=O)N[C@@H](CO)C(=O)NCC(=O)N[C@@H](C)C(=O)N1CCC[C@H]1C(=O)N1CCC[C@H]1C(=O)N1CCC[C@H]1C(=O)N[C@@H](CO)C(N)=O)[C@@H](C)CC)C(=O)O` [SEQ ID NO: 38, Y-Aib-E-G-T-F-T-S-D-L-S-I-Q-K(yE-x53)-E-E-Q-A-A-H-E-F-I-E-W-L-K-R-Aib-G-P-S-S-G-A-P-P-P-S-NH2], the pEC50 in test [1] was 11.13; in test [2], 11.05; in test [3], 7.65.

As to `CCCCCCCCCCCCCCCCCC(=O)N[C@@H](CCC(=O)NCCCC[C@H](NC(=O)[C@H](CCC(N)=O)NC(=O)[C@@H](NC(=O)[C@H](CO)NC(=O)[C@H](CC(C)C)NC(=O)[C@H](CC(=O)O)NC(=O)[C@H](CO)NC(=O)[C@@H](NC(=O)[C@H](Cc1ccccc1)NC(=O)[C@@H](NC(=O)CNC(=O)[C@H](CCC(=O)O)NC(=O)C(C)(C)NC(=O)[C@@H](N)Cc1ccc(O)cc1)[C@@H](C)O)[C@@H](C)O)[C@@H](C)CC)C(=O)N[C@@H](CCC(=O)O)C(=O)N[C@@H](CCC(=O)O)C(=O)N[C@@H](CCC(=O)O)C(=O)N[C@@H](C)C(=O)N[C@H](C(=O)N[C@@H](CCCCN)C(=O)N[C@@H](CC(C)C)C(=O)N[C@@H](Cc1ccccc1)C(=O)N[C@H](C(=O)N[C@@H](CCC(=O)O)C(=O)N[C@@H](Cc1c[nH]c2ccccc12)C(=O)N[C@@H](CC(C)C)C(=O)N[C@@H](CCCCN)C(=O)N[C@@H](C)C(=O)NCC(=O)NCC(=O)N1CCC[C@H]1C(=O)N[C@@H](CO)C(=O)N[C@@H](CO)C(=O)NCC(=O)N[C@@H](C)C(=O)N1CCC[C@H]1C(=O)N1CCC[C@H]1C(=O)N1CCC[C@H]1C(=O)N[C@@H](CO)C(N)=O)[C@@H](C)CC)C(C)C)C(=O)O` [SEQ ID NO: 62, Y-Aib-E-G-T-F-T-S-D-L-S-I-Q-K(yE-x70)-EEEAVKLFIEWLKAGGPSSGAPPPS-NH2] (H-Y[Aib]EGTFTSDLSIQK([γGlu-Stearoyl])EEEAVKLFIEWLKAGGPSSGAPPPS-NH2), the pEC50 in test [1] was 11.17; in test [2], 11.12; in test [3] it was less than 6.00.

Regarding `CCCCCCCCCCCCCCCCCC(=O)N[C@@H](CCC(=O)NCCCC[C@H](NC(=O)[C@H](CCC(N)=O)NC(=O)[C@@H](NC(=O)[C@H](CO)NC(=O)[C@H](CC(C)C)NC(=O)[C@H](CC(=O)O)NC(=O)[C@H](CO)NC(=O)[C@@H](NC(=O)[C@H](Cc1ccccc1)NC(=O)[C@@H](NC(=O)CNC(=O)[C@H](CCC(=O)O)NC(=O)C(C)(C)NC(=O)[C@@H](N)Cc1ccc(O)cc1)[C@@H](C)O)[C@@H](C)O)[C@@H](C)CC)C(=O)N[C@@H](CCC(=O)O)C(=O)N[C@@H](CO)C(=O)N[C@@H](CCCCN)C(=O)N[C@@H](C)C(=O)N[C@@H](C)C(=O)NC(C)(C)C(=O)N[C@@H](CCC(=O)O)C(=O)N[C@@H](Cc1ccccc1)C(=O)N[C@H](C(=O)N[C@@H](CCC(=O)O)C(=O)N[C@@H](Cc1c[nH]c2ccccc12)C(=O)N[C@@H](CC(C)C)C(=O)N[C@@H](CCCCN)C(=O)N[C@@H](C)C(=O)NCC(=O)NCC(=O)N1CCC[C@H]1C(=O)N[C@@H](CO)C(=O)N[C@@H](CO)C(=O)NCC(=O)N[C@@H](C)C(=O)N1CCC[C@H]1C(=O)N1CCC[C@H]1C(=O)N1CCC[C@H]1C(=O)N[C@@H](CO)C(=O)N[C@@H](CCCCN)C(N)=O)[C@@H](C)CC)C(=O)O` [SEQ ID NO: 16, Y-Aib-E-G-T-F-T-S-D-L-S-I-Q-K(yE-x70)-E-S-K-A-A-Aib-EFIEWLKAGGPSSGAPPPSK-NH2] (H-Y[Aib]EGTFTSDLSIQK([γGlu-Stearoyl])ESKAA[Aib]EFIEWLKAGGPSSGAPPPSK-NH2), the pEC50 in test [1] was 10.81; in test [2], 11.15; in test [3], 7.77.

Turning to `CCCCCCCCCCCCCCCC(=O)N[C@@H](CCC(=O)NCCCC[C@H](NC(=O)[C@H](CCC(N)=O)NC(=O)[C@@H](NC(=O)[C@H](CO)NC(=O)[C@H](CC(C)C)NC(=O)[C@H](CC(=O)O)NC(=O)[C@H](CO)NC(=O)[C@@H](NC(=O)[C@H](Cc1ccccc1)NC(=O)[C@@H](NC(=O)CNC(=O)[C@H](CCC(N)=O)NC(=O)C(C)(C)NC(=O)[C@@H](N)Cc1ccc(O)cc1)[C@@H](C)O)[C@@H](C)O)[C@@H](C)CC)C(=O)N[C@@H](CC(=O)O)C(=O)N[C@@H](CO)C(=O)N[C@@H](CCC(=O)O)C(=O)N[C@@H](C)C(=O)N[C@@H](C)C(=O)N[C@@H](CCC(N)=O)C(=O)N[C@@H](CC(=O)O)C(=O)N[C@@H](Cc1ccccc1)C(=O)N[C@H](C(=O)N[C@@H](CCC(=O)O)C(=O)N[C@@H](Cc1c[nH]c2ccccc12)C(=O)N[C@@H](CC(C)C)C(=O)N[C@@H](CCCCN)C(=O)N[C@@H](C)C(=O)NCC(=O)NCC(=O)N1CCC[C@H]1C(=O)N[C@@H](CO)C(=O)N[C@@H](CO)C(=O)NCC(=O)N[C@@H](C)C(=O)N1CCC[C@H]1C(=O)N1CCC[C@H]1C(=O)N1CCC[C@H]1C(=O)N[C@@H](CO)C(N)=O)[C@@H](C)CC)C(=O)O` [SEQ ID NO: 48, Y-Aib-Q-G-T-F-T-S-D-L-S-I-Q-K(yE-x53)-DSEAAQDFIEWLKAGGPSSGAPPPS-NH2] (H-Y[Aib]QGTFTSDLSIQK([γGlu-Palmitoyl])DSEAAQDFIEWLKAGGPSSGAPPPS-NH2), the pEC50 was 10.80 in test [1], 11.00 in test [2] and 9.32 in test [3].
